# Test results as given in PubChem BioAssay AID1963868 (Molecular Pharmacology Branch, DTP, NCI, 2024).
# System: KRAS PDC tumor spheroids (HUVEC+MSC), viability
# Experiment: Anticancer human tumor 254851-301-R-J1-PDC patient-derived colon carcinoma cell line growth inhibition [KRAS2]
# Settings: for IC50: curve of first compound; for viability, T/C: stronger effect = lower value
# How it was run: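 Combination screen of spheroid viability in tumor-cell co-cultures with endothelial (HUVEC) and mesenchymal stem cell stroma. Each agent was tested in half-log dilutions, topping at clinical Cmax or at 10 microM without a known Cmax.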
# [1] = second compound 0.1 µM, first compound 0.000316 µM
# [2] = second compound 0.1 µM, first compound 0.001 µM
# [3] = second compound 0.1 µM, first compound 0.00316 µM
# [4] = second compound 0.1 µM, first compound 0.01 µM
# [5] = second compound 0.1 µM, first compound 0.0316 µM
# [6] = second compound 0.316 µM, first compound 0.000316 µM
# [7] = second compound 0.316 µM, first compound 0.001 µM
# [8] = second compound 0.316 µM, first compound 0.00316 µM
# [9] = second compound 0.316 µM, first compound 0.01 µM
# [10] = second compound 0.316 µM, first compound 0.0316 µM
# [11] = second compound 1 µM, first compound 0.000316 µM
# [12] = second compound 1 µM, first compound 0.001 µM
# [13] = second compound 1 µM, first compound 0.00316 µM
# [14] = second compound 1 µM, first compound 0.01 µM
# [15] = second compound 1 µM, first compound 0.0316 µM
# [16] = second compound 3.16 µM, first compound 0.000316 µM
# [17] = second compound 3.16 µM, first compound 0.001 µM
# [18] = second compound 3.16 µM, first compound 0.00316 µM
# [19] = second compound 3.16 µM, first compound 0.01 µM
# [20] = second compound 3.16 µM, first compound 0.0316 µM
# [21] = second compound 10 µM, first compound 0.000316 µM
# [22] = second compound 10 µM, first compound 0.001 µM
# [23] = second compound 10 µM, first compound 0.00316 µM
# [24] = second compound 10 µM, first compound 0.01 µM
# [25] = second compound 10 µM, first compound 0.0316 µM
# [26] = second compound 0.1 µM, first compound 0.1 µM
# [27] = second compound 0.316 µM, first compound 0.1 µM
# [28] = second compound 1 µM, first compound 0.1 µM
# [29] = second compound 3.16 µM, first compound 0.1 µM
# [30] = second compound 10 µM, first compound 0.1 µM
# [31] = second compound 0.1 µM, first compound 0.316 µM
# [32] = second compound 0.1 µM, first compound 1 µM
# [33] = second compound 0.1 µM, first compound 3.16 µM
# [34] = second compound 0.1 µM, first compound 10 µM
# [35] = second compound 0.316 µM, first compound 0.316 µM
# [36] = second compound 0.316 µM, first compound 1 µM
# [37] = second compound 0.316 µM, first compound 3.16 µM
# [38] = second compound 0.316 µM, first compound 10 µM
# [39] = second compound 1 µM, first compound 0.316 µM
# [40] = second compound 1 µM, first compound 1 µM
# [41] = second compound 1 µM, first compound 3.16 µM
# [42] = second compound 1 µM, first compound 10 µM
# [43] = second compound 3.16 µM, first compound 0.316 µM
# [44] = second compound 3.16 µM, first compound 1 µM
# [45] = second compound 3.16 µM, first compound 3.16 µM
# [46] = second compound 3.16 µM, first compound 10 µM
# [47] = second compound 10 µM, first compound 0.316 µM
# [48] = second compound 10 µM, first compound 1 µM
# [49] = second compound 10 µM, first compound 3.16 µM
# [50] = second compound 10 µM, first compound 10 µM
# 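Further: spheroids exposed to compounds for seven days before readout.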
# 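Wherever viability, T/C is given: 100% = DMSO vehicle control luminescence of the spheroids.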
compound,measurement,setting,value
CC(=O)Nc1cccc(-n2c(=O)n(C3CC3)c(=O)c3c(Nc4ccc(I)cc4F)n(C)c(=O)c(C)c32)c1 + COc1cc2nc(C)nc(NC(C)c3cc(N)cc(C(F)(F)F)c3)c2cc1OC1CCOC1,IC50,second compound 0.1 µM,3.89 nM
same,IC50,second compound 0.316 µM,4.05 nM
same,IC50,second compound 1 µM,2.77 nM
same,IC50,second compound 3.16 µM,2.19 nM
same,IC50,second compound 10 µM,0.663 nM
same,"viability, T/C","second compound 0.1 µM, first compound 0.0001 µM",105%
same,"viability, T/C",[1],97.8%
same,"viability, T/C",[2],90.6%
same,"viability, T/C",[3],60.4%
same,"viability, T/C",[4],9.1%
same,"viability, T/C",[5],2.7%
same,"viability, T/C","second compound 0.316 µM, first compound 0.0001 µM",108%
same,"viability, T/C",[6],99%
same,"viability, T/C",[7],94%
same,"viability, T/C",[8],62.7%
same,"viability, T/C",[9],6.64%
same,"viability, T/C",[10],2.56%
same,"viability, T/C","second compound 1 µM, first compound 0.0001 µM",111%
same,"viability, T/C",[11],88.2%
same,"viability, T/C",[12],89.9%
same,"viability, T/C",[13],45.8%
same,"viability, T/C",[14],5.69%
same,"viability, T/C",[15],2.26%
same,"viability, T/C","second compound 3.16 µM, first compound 0.0001 µM",100%
same,"viability, T/C",[16],97.7%
same,"viability, T/C",[17],85.6%
same,"viability, T/C",[18],33.4%
same,"viability, T/C",[19],4.02%
same,"viability, T/C",[20],2.15%
same,"viability, T/C","second compound 10 µM, first compound 0.0001 µM",84.8%
same,"viability, T/C",[21],72.5%
same,"viability, T/C",[22],38%
same,"viability, T/C",[23],3.27%
same,"viability, T/C",[24],2.32%
same,"viability, T/C",[25],1.62%
CN(C)C/C=C/C(=O)Nc1cc2c(Nc3ccc(F)c(Cl)c3)ncnc2cc1O[C@H]1CCOC1 + COc1cc2nc(C)nc(NC(C)c3cc(N)cc(C(F)(F)F)c3)c2cc1OC1CCOC1,IC50,second compound 0.1 µM,> 100 nM
same,IC50,second compound 0.316 µM,> 100 nM
same,IC50,second compound 1 µM,> 100 nM
same,IC50,second compound 3.16 µM,> 100 nM
same,IC50,second compound 10 µM,> 100 nM
same,"viability, T/C",[1],104%
same,"viability, T/C",[2],110%
same,"viability, T/C",[3],108%
same,"viability, T/C",[4],102%
same,"viability, T/C",[5],96.5%
same,"viability, T/C",[26],75.3%
same,"viability, T/C",[6],102%
same,"viability, T/C",[7],102%
same,"viability, T/C",[8],91.9%
same,"viability, T/C",[9],87.9%
same,"viability, T/C",[10],88%
same,"viability, T/C",[27],74.7%
same,"viability, T/C",[11],99.5%
same,"viability, T/C",[12],101%
same,"viability, T/C",[13],92.7%
same,"viability, T/C",[14],81.8%
same,"viability, T/C",[15],85.9%
same,"viability, T/C",[28],81.7%
same,"viability, T/C",[16],91%
same,"viability, T/C",[17],85.3%
same,"viability, T/C",[18],89.7%
same,"viability, T/C",[19],78.7%
same,"viability, T/C",[20],84.6%
same,"viability, T/C",[29],63.5%
same,"viability, T/C",[21],78.2%
same,"viability, T/C",[22],78.9%
same,"viability, T/C",[23],81.6%
same,"viability, T/C",[24],82.9%
same,"viability, T/C",[25],65.9%
same,"viability, T/C",[30],59.5%
COC(=O)c1ccc2c(C(=Nc3ccc(N(C)C(=O)CN4CCN(C)CC4)cc3)c3ccccc3)c(O)[nH]c2c1 + COc1cc2nc(C)nc(NC(C)c3cc(N)cc(C(F)(F)F)c3)c2cc1OC1CCOC1,IC50,second compound 0.1 µM,> 10000 nM
same,IC50,second compound 0.316 µM,> 10000 nM
same,IC50,second compound 1 µM,> 10000 nM
same,IC50,second compound 3.16 µM,3850 nM
same,IC50,second compound 10 µM,1240 nM
same,"viability, T/C",[5],90.9%
same,"viability, T/C",[26],102%
same,"viability, T/C",[31],89%
same,"viability, T/C",[32],85.3%
same,"viability, T/C",[33],98.7%
same,"viability, T/C",[34],87%
same,"viability, T/C",[10],88%
same,"viability, T/C",[27],95%
same,"viability, T/C",[35],92.5%
same,"viability, T/C",[36],86.1%
same,"viability, T/C",[37],90.2%
same,"viability, T/C",[38],90.4%
same,"viability, T/C",[15],86.9%
same,"viability, T/C",[28],90.5%
same,"viability, T/C",[39],83.3%
same,"viability, T/C",[40],77.7%
same,"viability, T/C",[41],80.1%
same,"viability, T/C",[42],73%
same,"viability, T/C",[20],93.2%
same,"viability, T/C",[29],85.9%
same,"viability, T/C",[43],88.9%
same,"viability, T/C",[44],80.2%
same,"viability, T/C",[45],59.2%
same,"viability, T/C",[46],6.26%
same,"viability, T/C",[25],82.7%
same,"viability, T/C",[30],87%
same,"viability, T/C",[47],77.8%
same,"viability, T/C",[48],61.3%
same,"viability, T/C",[49],1.22%
same,"viability, T/C",[50],0.29%
O=C(c1cc(Cc2n[nH]c(=O)c3ccccc23)ccc1F)N1CCN(C(=O)C2CC2)CC1 + COc1cc2nc(C)nc(NC(C)c3cc(N)cc(C(F)(F)F)c3)c2cc1OC1CCOC1,IC50,second compound 0.1 µM,> 10000 nM
same,IC50,second compound 0.316 µM,> 10000 nM
same,IC50,second compound 1 µM,> 10000 nM
same,IC50,second compound 3.16 µM,> 10000 nM
same,IC50,second compound 10 µM,> 10000 nM
same,"viability, T/C",[5],111%
same,"viability, T/C",[26],94.5%
same,"viability, T/C",[31],98.5%
same,"viability, T/C",[32],91.8%
same,"viability, T/C",[33],101%
same,"viability, T/C",[34],97.2%
same,"viability, T/C",[10],94.5%
same,"viability, T/C",[27],103%
same,"viability, T/C",[35],95.1%
same,"viability, T/C",[36],96.1%
same,"viability, T/C",[37],96.4%
same,"viability, T/C",[38],104%
same,"viability, T/C",[15],101%
same,"viability, T/C",[28],108%
same,"viability, T/C",[39],101%
same,"viability, T/C",[40],101%
same,"viability, T/C",[41],98.1%
same,"viability, T/C",[42],98.2%
same,"viability, T/C",[20],94.9%
same,"viability, T/C",[29],89.8%
same,"viability, T/C",[43],89.5%
same,"viability, T/C",[44],95.2%
same,"viability, T/C",[45],90.4%
same,"viability, T/C",[46],87.3%
same,"viability, T/C",[25],94.9%
same,"viability, T/C",[30],90%
same,"viability, T/C",[47],91%
same,"viability, T/C",[48],82.7%
same,"viability, T/C",[49],76.2%
same,"viability, T/C",[50],78%
